One assay concerns p-p38 in HCT-116 cells. Put plainly: Phospho-p38 Meso Scale ELISA assay, TNFα-stimulated HCT-116 cells. The class given is cell-based. The settings on record: Homo sapiens, read-out: mean HCT-116 p-p38 ELISA IC50 (Col. C). The procedure: Detailed below are ELISA assays for pJNK and p38, and a TAK1 biochemical assay. […] In Table 1, Col.
• 1. Plate HCT-116 cells at 25,000 per well in 100 uL in 96 well clear dishes in normal growth medium. Day 2: • 1. Aspirate medium and replace with 90 μl reduced serum growth medium (1% FCS), incubate for 2 hours at 37° C. • 2. Make drugs at 10× in reduced serum medium and add 10 uL per well. • 3. Incubate at 37° C. for 4 hrs. • 4. Bring capture plates to room temperature. • 5. Block with 150 μl Blocking Solution (provided with kit) (600 mg Blocker A into 20 mL 1× Wash Buffer per plate) at room temperature with shaking. • 6. Wash plates 4× with 200 μl 1× wash buffer (10× provided with kit) before transferring lysates. • 7. Dilute TNFα to […] in reduced serum medium (this makes a 10× working stock). • 8. Add 10 μl TNFα to all wells except negative control wells, final concentration is 10 ng/mL. • 9. Incubate at 37° C. for 10 minutes. • 10. Remove medium by flicking into sink • 11. Wash cells with 100 uL ice cold PBS. • 12. Remove PBS by flicking into sink and patting on paper towels. • 13. Lyse cells in 50 μl ice cold 1× Complete Lysis Buffer plus Phosphatase and Protease inhibitors (all provided with kit) (10 mL Tris Lysis Buffer+200 μl Protease inhibitor solution+100 μl Phosphatase inhibitor I+100 μl Phosphatase inhibitor II). • 14. Incubate with shaking at 4° C. for 30 minutes. • 15. Transfer 45 μl to capture plate, cover with adhesive cover, and incubate at 4° C. over night with shaking. • Day 3: • 1. Wash plates 4× with 200 μl 1× wash buffer (10× provided with kit). • 2. […] Incubate at room temperature with shaking for 1 hour. • 4. Wash 4× with 200 μl 1× Wash Buffer. • 5. […] Read on Sector Imager. Phospho-p38 Meso Scale ELISA Assay Day 1: • 1. Plate HCT-116 cells at 25,000 per well in 100 uL in 96 well clear dishes in normal growth medium. zday 2: • 1. Aspirate medium and replace with 90 μl reduced serum growth medium (1% FCS), incubate for 2 hours at 37° C. • 2. Make drugs at 10× in reduced serum medium and add 10 uL per well. • 3. Incubate at 37° C. for 4 hrs. • 4. Bring capture plates to room temperature. • 5. Block with 150 μl Blocking Solution (provided with kit) (600 mg Blocker A into 20 mL 1× Wash Buffer per plate) at room temperature with shaking. • 6. Wash plates 4× with 200 μl 1× wash buffer (10× provided with kit) before transferring lysates. • 7. Dilute TNFα to […] in reduced serum medium (this makes a 10× working stock). • 8. Add 10 μl TNFα to all wells except negative control wells, final concentration is 10 ng/mL. • 9. Incubate at 37° C. for 10 minutes. • 10. Remove medium by flicking into sink • 11. Wash cells with 100 uL ice cold PBS. • 12. Remove PBS by flicking into sink and patting on paper towels. • 13. Lyse cells in 50 μl ice cold 1× Complete Lysis Buffer plus phosphatase and protease inhibitors (all provided with kit) (10 mL Tris Lysis Buffer+200 μl Protease inhibitor solution+100 μl Phosphatase inhibitor I+100 μl Phosphatase inhibitor II). • 14. Incubate with shaking at 4° C. for 30 minutes. • 15. Dilute lysates before transferring to capture plate with 100 μl Complete p38 Lysate • Dilution Buffer (provided with kit) (10 mL of Diluent 20±200 μl Protease inhibitor solution+100 μl Phosphatase inhibitor I+100 μl Phosphatase inhibitor II). • 16. Transfer 50 μl of diluted lysates to capture plate, cover with adhesive cover, and incubate at 4° C. over night with shaking. Day 3: • 1. Wash plates 4× with 200 μl 1× wash buffer (10× provided with kit). • 2. […] Incubate at room temperature with shaking for 1 hour. • 4. Wash 4× with 200 μl 1× Wash Buffer. • 5. […] Read on Sector Imager. TAK1 Biochemical Assay
(ELISA stands for enzyme-linked immunosorbent assay.)

A further assay has as its target T1, TAK1-TAB1 fusion protein (Homo sapiens, UniProt O43318).
T1 construct: purchased Carna
T1 sequence (O43318 with tags, fused parts or gaps limits assumed): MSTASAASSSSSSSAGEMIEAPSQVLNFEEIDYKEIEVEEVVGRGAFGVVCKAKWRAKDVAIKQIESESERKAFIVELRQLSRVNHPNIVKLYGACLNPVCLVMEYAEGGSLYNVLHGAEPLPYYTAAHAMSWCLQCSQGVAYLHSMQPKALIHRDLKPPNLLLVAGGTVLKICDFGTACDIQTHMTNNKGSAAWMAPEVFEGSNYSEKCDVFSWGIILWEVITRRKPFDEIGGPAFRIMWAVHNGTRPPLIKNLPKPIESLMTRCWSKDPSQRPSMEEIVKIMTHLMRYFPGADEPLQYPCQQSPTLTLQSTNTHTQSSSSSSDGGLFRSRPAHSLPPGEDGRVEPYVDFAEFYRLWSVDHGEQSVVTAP
The experiment in a line: TAK1 biochemical assay (AlphaScreen, GST-MAP2K7 substrate). Particulars: TAK1-TAB1 fusion protein, GST-MAP2K7 substrate; read-out: mean TAK1 IC50 (Col. A).

A further assay relates to pJNK in HCT-116 cells. The experiment in a line: Phospho-JNK (Thr183/Tyr185) Meso Scale ELISA assay, TNFα-stimulated HCT-116 cells. The format is cell-based. The settings on record: Homo sapiens, read-out: mean HCT-116 pJNK ELISA IC50 (Col. B). The method in brief: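 HCT-116 cells in 1% FCS medium were pretreated with compound for 4 hrs at 37° C, then stimulated with TNFα at 10 ng/mL final for 10 minutes. Lysates were taken in ice-cold lysis buffer with phosphatase and protease inhibitors, and phospho-JNK (Thr183/Tyr185) was measured by Meso Scale ELISA.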

Structures can show the parent of a compound that is named as a salt.

In general, IC50 refers to the midpoint of a concentration-inhibition curve. For the compound `CC(=O)N1CCC(n2cc(-c3cnc(N)c4oc(-c5ccc6[nH]ccc6c5)cc34)cn2)CC1` [Example 92, 1-(4-{4-[7-amino-2-(1H-indol-5-yl)furo[2,3-c]pyridin-4-yl]-1H-pyrazol-1-yl}piperidin-1-yl)ethanone], the figures for the half-inhibitory concentration (IC50) in the assay on p-p38 in HCT-116 cells, on TAK1-TAB1 fusion protein and with pJNK in HCT-116 cells were 0.1 to 1 µM, 1 to 10 µM and 0.1 to 1 µM, respectively.
`CC(=O)N1CCC(n2cc(-c3cnc(N)c4oc(-c5ccc6c(cnn6C)c5)cc34)cn2)CC1` [Example 146, 1-(4-{4-[7-amino-2-(1-methyl-1H-indazol-5-yl)furo[2,3-c]pyridin-4-yl]-1H-pyrazol-1-yl}piperidin-1-yl)ethanone]: the IC50 in the assay on p-p38 in HCT-116 cells lay within 1 to 10 µM; on TAK1-TAB1 fusion protein, 1 to 10 µM; in the assay on pJNK in HCT-116 cells it was 0.1 to 1 µM.
In the case of `CC(=O)N1CCC(n2cc(-c3cnc(N)c4oc(-c5ccccc5C)cc34)cn2)CC1` [Example 410, 1-(4-{4-[7-amino-2-(2-methylphenyl)furo[2,3-c]pyridin-4-yl]-1H-pyrazol-1-yl}piperidin-1-yl)ethanone], the IC50 with p-p38 in HCT-116 cells is 1 to 10 µM; on TAK1-TAB1 fusion protein, 0.1 to 1 µM; with pJNK in HCT-116 cells it was 0.1 to 1 µM.
Turning to `Nc1ncc(-c2cnn([C@H]3CC[C@H](O)CC3)c2)c2cc(-c3cccc4cnccc34)oc12` [Example 65, trans-4-{4-[7-amino-2-(isoquinolin-5-yl)furo[2,3-c]pyridin-4-yl]-1H-pyrazol-1-yl}cyclohexanol], the IC50 was 0.1 to 1 µM with p-p38 in HCT-116 cells, 0.1 to 1 µM at TAK1-TAB1 fusion protein and less than 0.1 µM in the assay with pJNK in HCT-116 cells.
For the compound `Nc1ncc(-c2cnn(C3CCN(C(=O)C4CCC4)CC3)c2)c2cc(-c3cccc4cnccc34)oc12` [Example 53, (4-{4-[7-amino-2-(isoquinolin-5-yl)furo[2,3-c]pyridin-4-yl]-1H-pyrazol-1-yl}piperidin-1-yl)(cyclobutyl)methanone], the figures for the half-maximal inhibitory concentration (IC50) in the assay with p-p38 in HCT-116 cells, on TAK1-TAB1 fusion protein and in the assay with pJNK in HCT-116 cells were 0.1 to 1 µM, 0.1 to 1 µM and less than 0.1 µM, respectively.
Take `CC(=O)N1CCC(n2cc(-c3cnc(N)c4oc(-c5ccccc5CC#N)cc34)cn2)CC1` [Example 215, (2-{4-[1-(1-acetylpiperidin-4-yl)-1H-pyrazol-4-yl]-7-aminofuro[2,3-c]pyridin-2-yl}phenyl)acetonitrile]: the IC50 in the assay on p-p38 in HCT-116 cells, at TAK1-TAB1 fusion protein and in the assay with pJNK in HCT-116 cells was 0.1 to 1 µM throughout.
Regarding `CC(=O)N1CCC(n2cc(-c3cnc(N)c4oc(-c5csc6cnccc56)cc34)cn2)CC1` [Example 189, 1-(4-{4-[7-amino-2-(thieno[2,3-c]pyridin-3-yl)furo[2,3-c]pyridin-4-yl]-1H-pyrazol-1-yl}piperidin-1-yl)ethanone], the IC50 is 0.1 to 1 µM in the assay on p-p38 in HCT-116 cells, less than 0.1 µM on TAK1-TAB1 fusion protein and less than 0.1 µM in the assay on pJNK in HCT-116 cells.
For `Nc1ncc(-c2cnn(C3CCCCC3)c2)c2cc(-c3c[nH]c4cnccc34)oc12` [Example 89, 4-(1-cyclohexyl-1H-pyrazol-4-yl)-2-(1H-pyrrolo[2,3-c]pyridin-3-yl)furo[2,3-c]pyridin-7-amine], the IC50 with p-p38 in HCT-116 cells was 0.1 to 1 µM; at TAK1-TAB1 fusion protein, less than 0.1 µM; in the assay with pJNK in HCT-116 cells, 0.1 to 1 µM.
In the case of `CC(=O)N1CCC(n2cc(-c3cnc(N)c4oc(-c5csc6cncc(F)c56)cc34)cn2)CC1` [Example 254, 1-(4-{4-[7-amino-2-(4-fluorothieno[2,3-c]pyridin-3-yl)furo[2,3-c]pyridin-4-yl]-1H-pyrazol-1-yl}piperidin-1-yl)ethanone trifluoroacetic Acid Salt], the IC50 is 0.1 to 1 µM in the assay with p-p38 in HCT-116 cells, less than 0.1 µM at TAK1-TAB1 fusion protein and 0.1 to 1 µM in the assay on pJNK in HCT-116 cells.
Take `COCCN1CCC(n2cc(-c3cnc(N)c4oc(-c5cccc6cnccc56)cc34)cn2)CC1` [Example 68, 2-(isoquinolin-5-yl)-4-{1-[1-(2-methoxyethyl)piperidin-4-yl]-1H-pyrazol-4-yl}furo[2,3-c]pyridin-7-amine]: the IC50 with p-p38 in HCT-116 cells, on TAK1-TAB1 fusion protein and in the assay with pJNK in HCT-116 cells was 0.1 to 1 µM throughout.
As for `Cc1sc2cnccc2c1-c1cc2c(-c3cnn([C@H]4CC[C@H](O)CC4)c3)cnc(N)c2o1` [Example 252, trans-4-{4-[7-amino-2-(2-methylthieno[2,3-c]pyridin-3-yl)furo[2,3-c]pyridin-4-yl]-1H-pyrazol-1-yl}cyclohexanol trifluoroacetate], the IC50 in the assay with p-p38 in HCT-116 cells and at TAK1-TAB1 fusion protein was 0.1 to 1 µM each time.
For `CNc1ncc(-c2cnn([C@H]3CC[C@H](O)CC3)c2)c2cc(-c3cccc4nnsc34)oc12` [Example 284, trans-4-{4-{2-[2-(1,2,3-benzothiadiazol-7-yl)-7-(methylamino)furo[2,3-c]pyridin-4-yl]-1H-pyrazol-1-yl}cyclohexanol formate salt], the IC50 at TAK1-TAB1 fusion protein and in the assay on pJNK in HCT-116 cells was less than 0.1 µM each time.
With `Nc1ncc(-c2cnn(C3CCN(C(=O)C4CC4)CC3)c2)c2cc(-c3csc4cnccc34)oc12` [Example 228, (4-{4-[7-amino-2-(thieno[2,3-c]pyridin-3-yl)furo[2,3-c]pyridin-4-yl]-1H-pyrazol-1-yl}piperidin-1-yl)(cyclopropyl)methanone diformate salt], the IC50 at TAK1-TAB1 fusion protein and in the assay on pJNK in HCT-116 cells was less than 0.1 µM in each case.
For the compound `Nc1ncc(-c2cnn(C3CCN(C(=O)Nc4cccc5c4CCCC5)CC3)c2)c2cc(-c3cccc4cnsc34)oc12` [Example 340, 4-[4-(7-amino-2-benzo[d]isothiazol-7-yl-furo[2,3-c]pyridin-4-yl)-pyrazol-1-yl]-piperidine-1-carboxylic acid (5,6,7,8-tetrahydro-naphthalen-1-yl)-amide], the IC50 on TAK1-TAB1 fusion protein and with pJNK in HCT-116 cells was 0.1 to 1 µM in each case.
Regarding `CN(C)C(=O)CCn1cc(-c2cnc(N)c3oc(-c4csc5cnccc45)cc23)cn1` [Example 346, 3-[4-(7-amino-2-thieno[2,3-c]pyridin-3-yl-furo[2,3-c]pyridin-4-yl)-pyrazol-1-yl]-N,N-dimethyl-propionamide], the 50% inhibitory concentration (IC50) at TAK1-TAB1 fusion protein lay within 0.1 to 1 µM; in the assay with pJNK in HCT-116 cells, 1 to 10 µM.
The like results for `CC(=O)N1[C@@H]2CC[C@H]1C[C@H](n1cc(-c3cnc(N)c4oc(-c5cccc6cnsc56)cc34)cn1)C2` [Example 327, 1-[(3-exo)-3-{4-[7-amino-2-(1,2-benzisothiazol-7-yl)furo[2,3-c]pyridin-4-yl]-1H-pyrazol-1-yl}-8-azabicyclo[3.2.1]oct-8-yl]ethanone] were, in that order, less than 0.1 µM and less than 0.1 µM.
